Activity calls are given as the source filed them. The rule behind the calls is not given here.
System: CCRIS mutagenicity, Ames/micronucleus/aberration tests
Experiment: CCRIS mutagenicity studies
Details: Test System: AMES SALMONELLA TYPHIMURIUM
[1] = Strain/Indicator: TA100, Metabolic Activation: RAT, LIVER, S-9, AROCLOR 1254, Method: STANDARD PLATE
[2] = Strain/Indicator: TA98, Metabolic Activation: HAMSTER, LIVER, S-9, AROCLOR 1254 (10%), Method: PREINCUBATION
[3] = Strain/Indicator: TA98, Metabolic Activation: NONE, Method: PREINCUBATION
[4] = Strain/Indicator: TA98, Metabolic Activation: NONE, Method: STANDARD PLATE
[5] = Strain/Indicator: TA98, Metabolic Activation: RAT, LIVER, S-9, AROCLOR 1254 (10%), Method: PREINCUBATION
[6] = Strain/Indicator: TA98, Metabolic Activation: RAT, LIVER, S-9, AROCLOR 1254, Method: STANDARD PLATE
[7] = Strain/Indicator: TA100, Metabolic Activation: HAMSTER, LIVER, S-9, AROCLOR 1254 (10%), Method: PREINCUBATION
[8] = Strain/Indicator: TA100, Metabolic Activation: NONE, Method: PREINCUBATION
[9] = Strain/Indicator: TA100, Metabolic Activation: NONE, Method: STANDARD PLATE
[10] = Strain/Indicator: TA100, Metabolic Activation: RAT, LIVER, S-9, AROCLOR 1254 (10%), Method: PREINCUBATION
[11] = Strain/Indicator: TA1535, Metabolic Activation: HAMSTER, LIVER, S-9, AROCLOR 1254 (10%), Method: PREINCUBATION
[12] = Strain/Indicator: TA1535, Metabolic Activation: NONE, Method: PREINCUBATION
[13] = Strain/Indicator: TA1535, Metabolic Activation: RAT, LIVER, S-9, AROCLOR 1254 (10%), Method: PREINCUBATION

Compound | mutagenic call [1] | mutagenic call [3] | mutagenic call [4] | mutagenic call [7] | mutagenic call [8] | mutagenic call [9] | mutagenic call [10] | mutagenic call [11] | mutagenic call [12] | mutagenic call [13] | other results
C/C=C1/C[C@@H](C)[C@](O)(CO)C(=O)OCC2=CCN3CC[C@@H](OC1=O)[C@@H]23 | – | – | – | – | – | – | – | – | – | – | mutagenic call (Strain/Indicator: TA97A, Metabolic Activation: RAT, LIVER, S-9, SODIUM PHENOBARBITAL AND BETA-NAPHTHOFLAVONE, Method: PREINCUBATION): inactive; negative; mutagenic call (Strain/Indicator: TA97A, Metabolic Activation: RAT, LIVER, S-9, SODIUM PHENOBARBITAL AND BETA-NAPHTHOFLAVONE, Method: STANDARD PLATE): inactive; negative; mutagenic call (Strain/Indicator: TA98, Metabolic Activation: RAT, LIVER, S-9, SODIUM PHENOBARBITAL AND BETA-NAPHTHOFLAVONE, Method: PREINCUBATION): inactive; negative; mutagenic call (Strain/Indicator: TA98, Metabolic Activation: RAT, LIVER, S-9, SODIUM PHENOBARBITAL AND BETA-NAPHTHOFLAVONE, Method: STANDARD PLATE): inactive; negative; mutagenic call (Strain/Indicator: TA100, Metabolic Activation: RAT, LIVER, S-9, SODIUM PHENOBARBITAL AND BETA-NAPHTHOFLAVONE, Method: PREINCUBATION): inactive; negative; mutagenic call (Strain/Indicator: TA100, Metabolic Activation: RAT, LIVER, S-9, SODIUM PHENOBARBITAL AND BETA-NAPHTHOFLAVONE, Method: STANDARD PLATE): inactive; negative; mutagenic call (Strain/Indicator: TA1535, Metabolic Activation: RAT, LIVER, S-9, SODIUM PHENOBARBITAL AND BETA-NAPHTHOFLAVONE, Method: PREINCUBATION): inactive; negative; mutagenic call (Strain/Indicator: TA1535, Metabolic Activation: RAT, LIVER, S-9, SODIUM PHENOBARBITAL AND BETA-NAPHTHOFLAVONE, Method: STANDARD PLATE): inactive; negative; mutagenic call (Strain/Indicator: TA1538, Metabolic Activation: RAT, LIVER, S-9, SODIUM PHENOBARBITAL AND BETA-NAPHTHOFLAVONE, Method: PREINCUBATION): inactive; negative; mutagenic call (Strain/Indicator: TA1538, Metabolic Activation: RAT, LIVER, S-9, SODIUM PHENOBARBITAL AND BETA-NAPHTHOFLAVONE, Method: STANDARD PLATE): inactive; negative
CCOc1cc2c(c3ccc4ccccc4c13)CCC2=O | inactive; negative | – | – | – | – | – | – | – | – | – | –
OCCBr | active; positive | inactive; negative | inactive; negative | active; positive | active; positive | active; positive | active; positive | active; positive | active; positive | active; positive | mutagenic call (Strain/Indicator: TA97, Metabolic Activation: HAMSTER, LIVER, S-9, AROCLOR 1254 (10%), Method: PREINCUBATION): inactive; negative; mutagenic call (Strain/Indicator: TA97, Metabolic Activation: NONE, Method: PREINCUBATION): inactive; negative; mutagenic call (Strain/Indicator: TA97, Metabolic Activation: RAT, LIVER, S-9, AROCLOR 1254 (10%), Method: PREINCUBATION): inactive; negative; mutagenic call [2]: inactive; negative; mutagenic call [5]: inactive; negative; mutagenic call [6]: inactive; negative
O=C(O)/C=C/c1ccc([N+](=O)[O-])o1 | – | active; positive | – | – | – | – | – | – | – | – | –
O=c1cc(-c2ccccc2)cc(-c2ccccc2)n1/N=C/c1ccc([N+](=O)[O-])o1 | – | – | inactive; negative | – | – | active; positive | – | – | – | – | mutagenic call (Strain/Indicator: TA97, Metabolic Activation: NONE, Method: STANDARD PLATE): inactive; negative; mutagenic call (Strain/Indicator: TA102, Metabolic Activation: NONE, Method: STANDARD PLATE): inactive; negative
CNc1ccc(N=Nc2ccc(N(C)C(C)=O)cc2)cc1 | – | – | – | – | – | – | – | – | – | – | mutagenic call (Strain/Indicator: TA98, Metabolic Activation: RAT, LIVER, S-9, POLYCHLORINATED BIPHENYLS, Method: PREINCUBATION): active; positive; mutagenic call (Strain/Indicator: TA100, Metabolic Activation: RAT, LIVER, S-9, POLYCHLORINATED BIPHENYLS, Method: PREINCUBATION): active; positive
COC(=O)c1oc(NOC(C)=O)c(-c2ccccc2)c1-c1ccccc1 | – | inactive; negative | – | – | inactive; negative | – | – | – | – | – | mutagenic call (Strain/Indicator: TA98, Metabolic Activation: RAT, LIVER, S-9, AROCLOR, Method: PREINCUBATION): inactive; negative; mutagenic call (Strain/Indicator: TA100, Metabolic Activation: RAT, LIVER, S-9, AROCLOR, Method: PREINCUBATION): inactive; negative
NC(=O)C1(C(N)=O)OC1C(=O)c1ccccc1 (configuration not stated) | inactive; negative | – | inactive; negative | – | – | inactive; negative | – | – | – | – | mutagenic call (Strain/Indicator: TA98, Metabolic Activation: NONE, Method: DISK ASSAY): inactive; negative; mutagenic call (Strain/Indicator: TA98, Metabolic Activation: RAT, LIVER, S-9, AROCLOR 1254, Method: DISK ASSAY): inactive; negative; mutagenic call [6]: active; positive
ClC(Cl)(Cl)CC1CO1 (configuration not stated) | – | – | – | inactive; negative | active; positive | – | inactive; negative | inactive; negative | inactive; negative | inactive; negative | –
C=CCN(CC=C)CC=C | – | inactive; negative | – | inactive; negative | inactive; negative | – | inactive; negative | inactive; negative | inactive; negative | inactive; negative | mutagenic call [2]: inactive; negative; mutagenic call [5]: inactive; negative; mutagenic call (Strain/Indicator: TA1537, Metabolic Activation: HAMSTER, LIVER, S-9, AROCLOR 1254 (10%), Method: PREINCUBATION): inactive; negative; mutagenic call (Strain/Indicator: TA1537, Metabolic Activation: NONE, Method: PREINCUBATION): inactive; negative; mutagenic call (Strain/Indicator: TA1537, Metabolic Activation: RAT, LIVER, S-9, AROCLOR 1254 (10%), Method: PREINCUBATION): inactive; negative

— PubChem BioAssay AID1259407 (Chemical Carcinogenesis Research Information System (CCRIS), 2018)
